Key:
[1] = test system: Eight (8) different species of bacteria; test: Bacterial growth (OD600) of cold-stressed cultures in BHI with or without chloramphenicol; type: cell-based; settings: 5 μg/mL in BHI, 37° C., 2-hour observation window
Protocol: Eight (8) different species of bacteria (Salmonella enterica, E. coli, Klebsiella pneumoniae, Citrobacter freundii, Staphylococcus aureus, Bacillus cereus, Listeria monocytogenes and Pseudomonas aeruginosa) were propagated from frozen stocks onto TSA plates and incubated at 37° C. for 24 hours. To induce cold-stress, a loopful of cells from each plate was transferred into 3 mL of Butterfield's Phosphate Buffer, vortexed to suspend the cells, and placed at 4° C. for 1 day. The following day, cells from each culture were pelleted for 10 minutes at 10,000 g and resuspended in BHI (FIG. 19A) or BHI containing 5 μg/mL of chloramphenicol (FIG. 19B). Each culture was normalized to an absorbance value at 600 nm (OD600) of 0.05 and loaded in triplicate onto a sterile microplate at 0.2 mL per well. The microplate was covered with BreatheEasy film and bacterial growth was monitored using a SpectroStar Nano spectrophotometer (BMG Labtech, Cary, NC) for 24 hours. During growth, the temperature was maintained at 37° C. and the plate was automatically shaken prior to OD600 readings every 10 minutes. […] OD600 observations were validated using the “gold-standard” petrifilm counts (3M) (FIG. 19C). […]

[2] = test system: Klebsiella pneumoniae (KP); test: APC petrifilm counts before and after 90 minutes incubation with or without chloramphenicol; type: cell-based; settings: 5 μg/mL, 37° C. for 90 minutes
Protocol: (§1) Eight (8) different species of bacteria (Salmonella enterica, E. coli, Klebsiella pneumoniae, Citrobacter freundii, Staphylococcus aureus, Bacillus cereus, Listeria monocytogenes and Pseudomonas aeruginosa) were propagated from frozen stocks onto TSA plates and incubated at 37° C. for 24 hours. To induce cold-stress, a loopful of cells from each plate was transferred into 3 mL of Butterfield's Phosphate Buffer, vortexed to suspend the cells, and placed at 4° C. for 1 day. The following day, cells from each culture were pelleted for 10 minutes at 10,000 g and resuspended in BHI (FIG. 19A) or BHI containing 5 μg/mL of chloramphenicol (FIG. 19B). Each culture was normalized to an absorbance value at 600 nm (OD600) of 0.05 and loaded in triplicate onto a sterile microplate at 0.2 mL per well. The microplate was covered with BreatheEasy film and bacterial growth was monitored using a SpectroStar Nano spectrophotometer (BMG Labtech, Cary, NC) for 24 hours. During growth, the temperature was maintained at 37° C. and the plate was automatically shaken prior to OD600 readings every 10 minutes. […] A cold-stressed Klebsiella pneumoniae (KP) culture prepared as described above was transferred into BHI or BHI containing 5 μg/mL of chloramphenicol and either plated immediately or placed at 37° C. for 90 minutes. […]

[3] = test system: Klebsiella pneumoniae (KP); test: 3-step metabolic labeling with EDA with or without chloramphenicol, detection on PIPER; type: cell-based; settings: 5 μg/mL, 1 mM EDA, 37° C. for 90 min
Protocol: as §1

[4] = test system: Bacillus, Enterococcus, Listeria, Salmonella, and Klebsiella; test: NADA-Green labeling of live versus heat-killed bacteria, PIPER non-capture assay; type: cell-based; settings: 1 mM, 60 minutes; live log phase or heat-killed 15 minutes at 70° C.
Protocol: Accordingly, as shown in FIG. 2A-E, NADA-Green labels live bacteria and illustrates five (5) different strains (Bacillus, Enterococcus, Listeria, Salmonella, and Klebsiella) of log phase bacteria growing at 37° C. in brain heart infusion (BHI) media or heat-killed for 15 minutes at 70° C. were incubated with or without the fluorescent D-amino acid, NADA-Green at 1 mM (Bio-Techne, Minneapolis, MN) for 60 minutes. Cells were pelleted to remove the excess dye and resuspended in 1X phosphate buffered saline (PBS). Each sample was then split into two tubes. To one of the tubes, SYBR Green (ThermoFisher Scientific, Waltham, Massachusetts) was added in 1:100 dilution. All samples were processed on Ancera Inc.'s PIPER™ platform (“PIPER”) in a non-capture assay and analyzed by a bacterial image recognition algorithm to determine labeled cell counts. […] SYBR labeling confirmed that the dead cells remained intact on the instrument.

Salmonella Typhimuirum = test: Time course of labeling with NADA-Green, PIPER cartridge coated with Salmonella-specific antibody; type: cell-based; settings: 1 mM, 30 minutes or 90 minutes, 37° C. in BHI
Protocol: Cells were pelleted by centrifugation (10 min 10,000 g) to remove the excess dye, resuspended in 1×PBS, mixed with ferrofluid, and processed on PIPER using a cartridge having areas coated with a Salmonella-specific antibody.

[5] = test system: gram-positive and gram-negative bacteria; test: Labeling of gram-positive and gram-negative bacteria with NADA-Green, PIPER non-capture assay; type: cell-based, five (5) different strains of log phase bacteria; settings: 1 mM, 90 minutes
Protocol: FIG. 4 depicts the labeling of gram-positive and gram-negative bacteria with NADA-Green with the five (5) different strains of log phase bacteria (see FIGS. 2A-E) growing at 37° C. in BHI media, and then incubated with 1 mM NADA-Green (Bio-Techne, Minneapolis, MN) for 90 minutes. Cells were pelleted by centrifugation (10 min 10,000 g) to remove the excess dye, resuspended in 1×PBS, mixed with ferrofluid, and processed on PIPER in a non-capture assay.

[6] = test system: eight (8) different strains of log phase bacteria; test: Quantification of cells labeled with NADA-Green in eight strains, PIPER image recognition algorithm; type: cell-based; settings: 1 mM, 60 minutes
Source text: FIG. 5A depicts the quantification of cells labeled with NADA-Green in eight (8) different strains of log phase bacteria. FIG. 5B depicts the quantification of cell labelling efficiency by NADA-Green in eight (8) different strains of log phase bacteria (SE—Salmonella enterica; EC—Escherichia coli; KP—Klebsiella pneumoniae; CF—Citrobacter freundii; SA—Staphylococcus aureus; BC—Bacillus cereus; LM—Listeria monocytogenes; PA—Pseudomonas aeruginosa), determined as a percentage of NADA-labelled PIPER cell counts to the SYBR-labelled PIPER cell counts. Cells growing at 37° C. in BHI media were incubated with 1 mM NADA-Green (Bio-Techne, Minneapolis, MN) for 60 minutes. Cells were pelleted by centrifugation (10 min 10,000 g) to remove the excess dye, resuspended in 1×PBS, mixed with ferrofluid, and processed on PIPER in a non-capture assay. An automated bacterial image recognition algorithm determined labeled cell counts.

[7] = test system: Salmonella Typhimurium, Staphylococcus aureus, or a mixture of the two strains; test: Labeling of a mixed culture with NADA-Green, PIPER non-capture assay; type: cell-based; settings: 1 mM, 60 minutes, 37° C.
Protocol: Even with efficient uptake of the D-amino acid analog, gram-negative bacteria may not stain as brightly as gram-positive bacteria because gram-negative bacteria have a much thinner peptidoglycan layer. […] For example, FIGS. 12A-B depict labeling of a mixed culture with NADA-Green. A log phase culture of Salmonella Typhimurium, Staphylococcus aureus, or a mixture of the two strains was incubated at 37° C. with 1 mM NADA-Green Bio-Techne, Minneapolis, MN) for 60 minutes. Cells were pelleted by centrifugation (10 min 10,000 g) to remove the excess dye, resuspended in 1×PBS, mixed with ferrofluid, and processed on PIPER in a non-capture assay. […] Salmonella cells appear smaller and dimmer in the image than Staph. aureus cells.

E. coli = test: Cell doubling control with DL-serine hydroxamate, OD600 and EDA click labeling on PIPER; type: cell-based
Protocol: E. coli was grown overnight at 37° C. The next day, cells were diluted into fresh media and grown for 2 hours. Next, +/−DL-serine hydroxamate (SHX; 1 mg/ml) and EDA (1 mM) were added. OD600 was taken every 20 min for 90 min. Aliquots of cells at the last time point were pelleted by centrifugation (10 min 10,000 g), and supernatant was discarded. Bacteria were washed with 1 mL of 1× PBS, pelleted by centrifugation (10 min 10,000 g), and supernatant was discarded. Cell pellets were resuspended in click reaction solution containing 200 μM copper sulfate (II) (MilliporeSigma, Burlington, MA), 128 μM THPTA ligand (Lumiprobe, Hunt Valley, MD), 2.5 mM Ascorbic acid (MilliporeSigma, Burlington, MA), 25 μM CF488 picolyl azide fluorescent dye (Biotium, Fremont, CA) and incubated for 30 min at room temperature. Cells were pelleted by centrifugation (10 min 10,000 g), supernatant was discarded, and pellets were resuspended 1 mL of 1× PBS. Finally, pellets were resuspended in PBS, mixed with ferrofluid and processed in the non-capture assay on PIPER. An automated bacterial image recognition algorithm determined labeled cell counts.

B. cereus (ATCC 33019) = settings: ethanol 70%, 5 to 10 min at room temperature
Protocol: (§2) Experimental Detail: A single colony of each indicated bacteria was inoculated into BHI and incubated overnight at 37° C. On the next day, the cells were diluted into fresh BHI and incubated for 2 h at 37° C. followed by an additional 90-minute incubation in the presence or absence of 1 mM EDA, where indicated. Where indicated, an aliquot of each culture was mixed with 96% ethanol to a final concentration of 70% (A, B) or 25% (C) and incubated for 5 to 10 min at room temperature. Cultures not exposed to ethanol were incubated for an equal amount of time in 1×PBS. Cells were pelleted by centrifugation for 10 min at 10,000 g, and supernatant containing excess EDA and ethanol was discarded. Cells were then resuspended in 300 μL of 1×PBS and pelleted again by centrifugation (10 min at 10,000 g). The 3rd step was carried out by resuspending cell pellets in 0.25 mL of 1×PBS solution containing 200 μM copper sulfate (II) (MilliporeSigma, Burlington, MA), 128 μM THPTA ligand (Lumiprobe, Hunt Valley, MD), 2.5 mM Ascorbic acid (MilliporeSigma, Burlington, MA), 25 μM CF488 picolyl azide fluorescent dye (Biotium, Fremont, CA), and 5% DMSO (Thermo Fisher Scientific, Waltham, MA). After a 30-minute incubation at room temperature, 500 μL of 1×PBS was added to each reaction, and cells were harvested by centrifugation (10 min at 10,000 g). Supernatant containing excess dye and reaction components was discarded, cells were washed with 500 μL of 1×PBS, and the cells were pelleted again by centrifugation. Finally, each cell pellet was resuspended in 0.3 mL of 1×PBS and mixed with an equal volume of ferrofluid. All samples were run on PIPER, and cell counts were generated by image analysis using an automated bacterial image recognition algorithm.

E. coli (ATCC 35421) = settings: 5 or 10 minutes with ethanol; cells grown in the presence of EDA
Protocol: as §2

[8] = test system: Salmonella enterica (ATCC 12023), Klebsiella pneumoniae (ATCC 13882), Citrobacter freundii (ATCC 8090), and E. coli (ATCC 35421); settings: ethanol 25%, N=3
Protocol: as §2

Structure (SMILES): O=C(N[C@H](CO)[C@H](O)c1ccc([N+](=O)[O-])cc1)C(Cl)Cl [chloramphenicol]
- doubling (OD600) [1]: prevented doubling in all 8 strains
- cell doubling by APC petrifilm counts [2]: prevented cell doubling
- PIPER cell counts versus sample without chloramphenicol [3]: slight decrease in cell counts
- interference with 3-step metabolic labeling and detection on PIPER [3]: did not interfere with 3-step metabolic labeling and detection on PIPER

Structure (SMILES): N[C@H](CNc1ccc([N+](=O)[O-])c2nonc12)C(=O)O [NADA-Green]
- labeled cell counts above background noise, live versus heat-killed cells [4]: Only live cells labeled with NADA-Green were counted above background noise
- interference with cell growth or capture by the antibody (Salmonella Typhimuirum): does not interfere with cell growth or capture by the antibody
- labeling of bacteria [5]: labels both gram-positive and gram-negative bacteria
- detection of labeled strains by the image recognition algorithm [6]: All labeled strains except Pseudomonas were detected
- PIPER counts in mixed culture versus individual cultures [7]: counts in the mixed culture are approximately additive of the counts for each individual culture

Structure (SMILES): NC(CO)C(=O)NO (racemic) [DL-Serine hydroxamate, DL-serine hydroxamate]
- labeling with EDA and click reaction in the presence of the agent (E. coli; 1 mg/ml SHX, 1 mM EDA): does not prevent labeling
- doubling of fast-growing cells (OD600) (E. coli; 1 mg/ml, OD600 every 20 min for 90 min): slows doubling of fast-growing cells

Structure (SMILES): CCO [ethanol]
- CuAAC labeling with or without ethanol treatment (B. cereus (ATCC 33019)): occurred efficiently both with or without ethanol treatment
- detection after ethanol incubation prior to the click reaction (E. coli (ATCC 35421)): dramatically improved detection
- cell counts, cell mean intensity and variability across technical replicates [8]: improved cell counts and/or cell mean intensity and reduced the variability across technical replicates

From patent US20250354192A1, “METHODS FOR QUANTIFYING LIVE BACTERIA” (priority 2022, published 2025)
